Measured values: patent US10131652B2, “Pyrimidinyloxy benzene derivatives as herbicides” (E. I. DU PONT DE NEMOURS AND COMPANY, priority 2014, dated 2018)

Columns and labels:
Format in all cases: in vivo
[1] = tested on: morningglory (Ipomoea coccinea); assay: Test D pre-/postemergence plant response; details: Ipomoea, pre-emergence, Preemergence
Procedure, shortened: (§1)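 Plants are held in a greenhouse 13 to 15 days after spraying, then injury is rated by eye relative to controls on a 0 to 100 scale. Treatments are preemergence on freshly sown loam/sand pots or postemergence at 1- to 4-leaf stage in peat-based medium; surfactant-containing solvent formulation.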

[2] = tested on: blackgrass (Alopecurus myosuroides); assay: Test D pre-/postemergence plant response; details: Alopecurus myosuroides, pre-emergence, Preemergence
Procedure, shortened: as §1

[3] = tested on: pigweed (Amaranthus retroflexus); assay: Test D pre-/postemergence plant response; details: Amaranthus retroflexus, pre-emergence, Preemergence
Procedure, shortened: as §1

[4] = tested on: velvetleaf (Abutilon theophrasti); assay: Test D pre-/postemergence plant response; details: Abutilon theophrasti, pre-emergence, Preemergence
Procedure, shortened: as §1

[5] = tested on: Italian ryegrass (Lolium multiflorum); assay: Test D pre-/postemergence plant response; details: Lolium multiflorum, pre-emergence, Preemergence
Procedure, shortened: as §1

[6] = tested on: large (Lg) crabgrass (Digitaria sanguinalis); assay: Test D pre-/postemergence plant response; details: Digitaria sanguinalis, pre-emergence, Preemergence
Procedure, shortened: as §1

[7] = tested on: giant foxtail (Setaria faberii); assay: Test D pre-/postemergence plant response; details: Setaria faberi, pre-emergence, Preemergence
Procedure, shortened: as §1

corn (Zea mays) = assay: Test D pre-/postemergence plant response; details: Zea mays, pre-emergence, Preemergence
Procedure, shortened: as §1

[8] = tested on: lambsquarters (Chenopodium album); assay: Test D pre-/postemergence plant response; details: Chenopodium album, pre-emergence, Preemergence
Procedure, shortened: as §1

[9] = tested on: waterhemp (common waterhemp, Amaranthus rudis); assay: Test D pre-/postemergence plant response; details: Amaranthus tuberculatus, pre-emergence, Preemergence
Procedure, shortened: as §1

[10] = tested on: barnyardgrass (Echinochloa crus-galli); assay: Test D pre-/postemergence plant response; details: Echinochloa crus-galli, pre-emergence, Preemergence
Procedure, shortened: as §1

soybean (Glycine max) = assay: Test D pre-/postemergence plant response; details: Glycine max, pre-emergence, Preemergence
Procedure, shortened: as §1

kochia (Kochia scoparia) = assay: Test B pre-/postemergence plant response
Procedure, shortened: (§2)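 Seeds in loam–sand blend given preemergence soil spray; separately, plants at one- to two-leaf stage (2–10 cm) sprayed postemergence, compounds in non-phytotoxic solvent with surfactant. Injury rated visually versus untreated controls after ~10 days in greenhouse, 0 (no effect) to 100 (complete control).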

[11] = tested on: Italian ryegrass (Lolium multiflorum); assay: Test B pre-/postemergence plant response
Procedure, shortened: as §2

[12] = tested on: ragweed (common ragweed, Ambrosia elatior); assay: Test B pre-/postemergence plant response
Procedure, shortened: as §2

[13] = 125 g ai/ha, postemergence, 0 to 100 scale, 0 no effect, 100 complete control
[14] = Postemergence, 500 g ai/ha, 0 to 100 scale (0 no effect, 100 complete control)
[15] = Preemergence, 125 g ai/ha, 0 to 100 scale (0 no effect, 100 complete control)
[16] = Preemergence, 500 g ai/ha, 0 to 100 scale where 0 is no effect and 100 is complete control

SMILES: N#Cc1cccc(Oc2ncc(Cl)cn2)c1-c1cc(C(F)(F)F)ccn1 [Compound 158, 5-chloro-2-[3-cyano-2-[4-(trifluoromethyl)-2-pyridinyl]phenoxy]pyrimidine]
- pest or weed control at 125 g/ha ([1]; 125 g ai/ha, read-out: Plant response rating (scale 0 to 100), Morningglory): 70%
- pest or weed control at 16 g/ha ([1]; 16 g ai/ha, scale 0 to 100 (0 no effect, 100 complete control), read-out: Plant response rating, Morningglory): 5%
- pest or weed control at 31 g/ha ([1]; 31 g ai/ha, scale 0 to 100 (0 no effect, 100 complete control), read-out: Plant response rating, Morningglory): 15%
- pest or weed control at 62 g/ha ([1]; 62 g ai/ha, scale 0 to 100 (0 no effect, 100 complete control), read-out: Plant response rating, Morningglory): 15%
- pest or weed control at 125 g/ha ([2]; 125 g ai/ha, read-out: Plant response rating (scale 0 to 100), Blackgrass): 90%
- pest or weed control at 16 g/ha ([2]; 16 g ai/ha, scale 0 to 100 (0 no effect, 100 complete control), read-out: Plant response rating, Blackgrass): 0%
- pest or weed control at 31 g/ha ([2]; 31 g ai/ha, scale 0 to 100 (0 no effect, 100 complete control), read-out: Plant response rating, Blackgrass): 15%
- pest or weed control at 62 g/ha ([2]; 62 g ai/ha, scale 0 to 100 (0 no effect, 100 complete control), read-out: Plant response rating, Blackgrass): 50%
- pest or weed control at 125 g/ha ([3]; 125 g ai/ha, read-out: Plant response rating (scale 0 to 100), Pigweed): 100%
- pest or weed control at 16 g/ha ([3]; 16 g ai/ha, scale 0 to 100 (0 no effect, 100 complete control), read-out: Plant response rating, Pigweed): 70%
- pest or weed control at 31 g/ha ([3]; 31 g ai/ha, scale 0 to 100 (0 no effect, 100 complete control), read-out: Plant response rating, Pigweed): 75%
- pest or weed control at 62 g/ha ([3]; 62 g ai/ha, scale 0 to 100 (0 no effect, 100 complete control), read-out: Plant response rating, Pigweed): 100%
- pest or weed control at 125 g/ha ([4]; 125 g ai/ha, read-out: Plant response rating (scale 0 to 100), Velvetleaf): 70%
- pest or weed control at 16 g/ha ([4]; 16 g ai/ha, scale 0 to 100 (0 no effect, 100 complete control), read-out: Plant response rating, Velvetleaf): 35%
- pest or weed control at 31 g/ha ([4]; 31 g ai/ha, scale 0 to 100 (0 no effect, 100 complete control), read-out: Plant response rating, Velvetleaf): 25%
- pest or weed control at 62 g/ha ([4]; 62 g ai/ha, scale 0 to 100 (0 no effect, 100 complete control), read-out: Plant response rating, Velvetleaf): 40%
- pest or weed control at 125 g/ha ([5]; 125 g ai/ha, read-out: Plant response rating (scale 0 to 100), Ryegrass, Italian): 20%
- pest or weed control at 16 g/ha ([5]; 16 g ai/ha, scale 0 to 100 (0 no effect, 100 complete control), read-out: Plant response rating, Ryegrass, Italian): 0%
- pest or weed control at 31 g/ha ([5]; 31 g ai/ha, scale 0 to 100 (0 no effect, 100 complete control), read-out: Plant response rating, Ryegrass, Italian): 0%
- pest or weed control at 62 g/ha ([5]; 62 g ai/ha, scale 0 to 100 (0 no effect, 100 complete control), read-out: Plant response rating, Ryegrass, Italian): 0%
- pest or weed control at 125 g/ha ([6]; 125 g ai/ha, read-out: Plant response rating (scale 0 to 100), Crabgrass, Large): 100%
- pest or weed control at 16 g/ha ([6]; 16 g ai/ha, scale 0 to 100 (0 no effect, 100 complete control), read-out: Plant response rating, Crabgrass, Large): 25%
- pest or weed control at 31 g/ha ([6]; 31 g ai/ha, scale 0 to 100 (0 no effect, 100 complete control), read-out: Plant response rating, Crabgrass, Large): 90%
- pest or weed control at 62 g/ha ([6]; 62 g ai/ha, scale 0 to 100 (0 no effect, 100 complete control), read-out: Plant response rating, Crabgrass, Large): 85%
- pest or weed control at 125 g/ha ([7]; 125 g ai/ha, read-out: Plant response rating (scale 0 to 100), Foxtail, Giant): 100%
- pest or weed control at 16 g/ha ([7]; 16 g ai/ha, scale 0 to 100 (0 no effect, 100 complete control), read-out: Plant response rating, Foxtail, Giant): 5%
- pest or weed control at 31 g/ha ([7]; 31 g ai/ha, scale 0 to 100 (0 no effect, 100 complete control), read-out: Plant response rating, Foxtail, Giant): 55%
- pest or weed control at 62 g/ha ([7]; 62 g ai/ha, scale 0 to 100 (0 no effect, 100 complete control), read-out: Plant response rating, Foxtail, Giant): 85%
- plant injury at 125 g/ha (corn (Zea mays); 125 g ai/ha, read-out: Plant response rating (scale 0 to 100), Corn): 15%
- Corn plant response rating (crop injury, 0 = no effect, 100 = complete kill) at 16 g/ha (corn (Zea mays); 16 g ai/ha, scale 0 to 100 (0 no effect, 100 complete control)): 0%
- Corn plant response rating (crop injury, 0 = no effect, 100 = complete kill) at 31 g/ha (corn (Zea mays); 31 g ai/ha, scale 0 to 100 (0 no effect, 100 complete control)): 0%
- Corn plant response rating (crop injury, 0 = no effect, 100 = complete kill) at 62 g/ha (corn (Zea mays); 62 g ai/ha, scale 0 to 100 (0 no effect, 100 complete control)): 5%
- pest or weed control at 125 g/ha ([8]; 125 g ai/ha, read-out: Plant response rating (scale 0 to 100), Lambsquarters): 80%
- pest or weed control at 16 g/ha ([8]; 16 g ai/ha, scale 0 to 100 (0 no effect, 100 complete control), read-out: Plant response rating, Lambsquarters): 75%
- pest or weed control at 31 g/ha ([8]; 31 g ai/ha, scale 0 to 100 (0 no effect, 100 complete control), read-out: Plant response rating, Lambsquarters): 100%
- pest or weed control at 62 g/ha ([8]; 62 g ai/ha, scale 0 to 100 (0 no effect, 100 complete control), read-out: Plant response rating, Lambsquarters): 100%
- pest or weed control at 125 g/ha ([9]; 125 g ai/ha, read-out: Plant response rating (scale 0 to 100), Waterhemp): 100%
- pest or weed control at 16 g/ha ([9]; 16 g ai/ha, scale 0 to 100 (0 no effect, 100 complete control), read-out: Plant response rating, Waterhemp): 100%
- pest or weed control at 31 g/ha ([9]; 31 g ai/ha, scale 0 to 100 (0 no effect, 100 complete control), read-out: Plant response rating, Waterhemp): 100%
- pest or weed control at 62 g/ha ([9]; 62 g ai/ha, scale 0 to 100 (0 no effect, 100 complete control), read-out: Plant response rating, Waterhemp): 100%
- pest or weed control at 125 g/ha ([10]; 125 g ai/ha, read-out: Plant response rating (scale 0 to 100), Barnyardgrass): 20%
- pest or weed control at 16 g/ha ([10]; 16 g ai/ha, scale 0 to 100 (0 no effect, 100 complete control), read-out: Plant response rating, Barnyardgrass): 0%
- pest or weed control at 31 g/ha ([10]; 31 g ai/ha, scale 0 to 100 (0 no effect, 100 complete control), read-out: Plant response rating, Barnyardgrass): 5%
- pest or weed control at 62 g/ha ([10]; 62 g ai/ha, scale 0 to 100 (0 no effect, 100 complete control), read-out: Plant response rating, Barnyardgrass): 35%
- plant injury at 125 g/ha (soybean (Glycine max); 125 g ai/ha, read-out: Plant response rating (scale 0 to 100), Soybean): 95%
- plant injury at 16 g/ha (soybean (Glycine max); 16 g ai/ha, scale 0 to 100 (0 no effect, 100 complete control), read-out: Plant response rating, Soybean): 0%
- plant injury at 31 g/ha (soybean (Glycine max); 31 g ai/ha, scale 0 to 100 (0 no effect, 100 complete control), read-out: Plant response rating, Soybean): 25%
- plant injury at 62 g/ha (soybean (Glycine max); 62 g ai/ha, scale 0 to 100 (0 no effect, 100 complete control), read-out: Plant response rating, Soybean): 45%
- Plant response rating, Kochia (kochia (Kochia scoparia); [13]): 70
- Plant response rating, Kochia (kochia (Kochia scoparia); [14]): 90
- Kochia plant response rating (kochia (Kochia scoparia); [15]): 100
- Plant response rating, Kochia (kochia (Kochia scoparia); [16]): 100
- Plant response rating, Ryegrass, Italian [11, 13]: 0
- Plant response rating, Ryegrass, Italian [11, 14]: 70
- Ryegrass, Italian plant response rating [11, 15]: 0
- Plant response rating, Ryegrass, Italian [11, 16]: 20
- Plant response rating, Ragweed [12, 13]: 0
- Plant response rating, Ragweed [12, 14]: 30
- Ragweed plant response rating [12, 15]: 0
- Plant response rating, Ragweed [12, 16]: 20
